Reference: US10682353B2, “Varlitinib for use in the treatment of resistant or refractory cancer” (ASLAN Pharmaceuticals PTE LTD, priority 2015, dated 2020)

What was measured:
Assay type in all cases: in vivo, human
[1] = tested on: stage IV cholangiocarcinoma EGFR positive (3+) cancer; test: Example 1: Varlitinib 400 mg bi-daily monotherapy in a patient; settings: after treatment cycle 6, Varlitinib 400 mg bi-daily monotherapy
[2] = tested on: stage IV, extra-hepatic cholangiocarcinoma; test: Example 2: Varlitinib 400 mg bi-daily combination therapy followed by monotherapy in a patient
Experimental: A person, stage IV, extra-hepatic cholangiocarcinoma, prior treatment: • Whipple • Radiotherapy • Gemzar/cisplatin for 6 months For the first 6 cycles, the patient received Varlitinib 400 mg BID continuously with cisplatin (80 mg/m^2 every 3 weeks) and capecitabine (1000 mg/m2 BID, 2 weeks on, 1 week off). […] In summary, the patient received varlitinib with chemo for 6 cycles and varlitinib monotherapy for another 4 cycles (3 weeks per cycle).

[3] = tested on: intrahepatic cholangiocarcinoma, stage IV; test: Example 3: Varlitinib 400 mg bi-daily orally and FOLFOX in a patient (ASLAN001-002SG study)
Source text: They received left hemihepatectomy followed by 6 cycles of adjuvant gemcitabine and cisplatin.

Compound: C[C@@H]1COC(Nc2ccc3ncnc(Nc4ccc(OCc5nccs5)c(Cl)c4)c3c2)=N1 [Varlitinib, (R)—N4-[3-Chloro-4-(thiazol-2-ylmethoxy)-phenyl]-N6-(4-methyl-4,5,-dihydro-oxazol-2-yl)-quinazoline-4,6-diamine]
- tumour marker CA 19-9 ([1]; fell from ~900 U/ml): ~250 U/ml
- liver tumours decreased in size ([1]; one patient progressive after gemcitabine and cisplatin/5-FU): up to 23%
- reduction in tumour size (tumor scan) ([2]; end of cycle 8, varlitinib monotherapy after 6 cycles of combination with cisplatin and capecitabine): 87%
- image scan outcome based on RECIST ([2]; end of cycle 10, on varlitinib monotherapy, criterion >20% increase against nadir): disease progression
- reduction in tumor size as the best response from baseline ([3]; Varlitinib 400 mg BID with mFOLFOX6 for 9 cycles, then 9 cycles varlitinib monotherapy (2 weeks per cycle), one patient): 53%
- latest tumor assessment (response) ([3]; after cycle 18, 9 cycles Varlitinib 400 mg BID and mFOLFOX6, then 9 cycles varlitinib monotherapy): partial response
